Test results: ChEMBL document CHEMBL4765417, “Targeting Protein Folding: A Novel Approach for the Treatment of Pathogenic Bacteria” (J Med Chem, 2020)

Columns and labels:
[1] = biological target: Outer membrane protein MIP (Legionella pneumophila, UniProt Q70YI1); experiment: Inhibition of Legionella pneumophila Mip assessed as reduction in PPIase activity using succinyl-Ala-Leu-Pro-Phe-4-nitroanilide as substrate incubated for 4 mins by absorbance method
[2] = test system: Chlamydia trachomatis; experiment: Antibacterial activity against Chlamydia trachomatis infected in human HeLa cells at 5 uM administered at 8 to 24 hrs post infection by phalloidin dye based Alexa Fluor immunofluorescence microscopy; type: functional; settings: time 8-24 hrs
[3] = Inhibition of Neisseria gonorrhoeae N2009 Mip using N-succinyl-Ala-Ala-Pro-Phe-4-nitroanilide as substrate by absorbance method
[4] = Inhibition of Chlamydia trachomatis Mip using N-succinyl-Ala-Ala-Pro-Phe-4-nitroanilide as substrate by absorbance method
[5] = test system: Chlamydia trachomatis; experiment: Antibacterial activity against Chlamydia trachomatis infected in human HeLa cells at 5 uM assessed as reduction in progeny infection administered immediately followed by bacterial infection by phalloidin dye based Alexa Fluor immunofluorescence microscopy; type: functional; set-up: scale not given: the % may be the effect or the level left
[6] = test system: Chlamydia trachomatis; experiment: Antibacterial activity against Chlamydia trachomatis infected in human HeLa cells at 5 uM assessed as reduction in progeny infection administered immediately followed by bacterial infection by Western blot analysis; type: functional; set-up: scale not given: the % may be the effect or the level left
[7] = test system: Chlamydia trachomatis; experiment: Antibacterial activity against Chlamydia trachomatis infected in human HeLa cells at 5 uM assessed as reduction in progeny infection administered at 8 to 24 hrs post infection by Western blot analysis; type: functional; set-up: scale not given: the % may be the effect or the level left; settings: time 8-24 hrs
[8] = test system: HCT-116; experiment: Antiproliferative activity against human HCT116 cells incubated for 24 hrs by cell count reagent SF based assay; type: functional; settings: HCT-116, 24 h
[9] = biological target: Peptidyl-prolyl cis-trans isomerase FKBP1A (Homo sapiens, UniProt P62942); experiment: Inhibition of human FKBP12 assessed as reduction in PPIase activity using succinyl-Ala-Leu-Pro-Phe-4-nitroanilide as substrate incubated for 4 mins by absorbance method
Peptidyl-prolyl cis-trans isomerase FKBP1A, sequence (P62942 whole entry): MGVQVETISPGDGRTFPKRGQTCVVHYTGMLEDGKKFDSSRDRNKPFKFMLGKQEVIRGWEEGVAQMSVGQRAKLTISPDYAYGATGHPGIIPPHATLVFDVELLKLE

[10] = clinical; settings: human, in vivo, po, 30 mg/m2

Outer membrane protein MIP, sequence (Q70YI1 21-233 limits assumed): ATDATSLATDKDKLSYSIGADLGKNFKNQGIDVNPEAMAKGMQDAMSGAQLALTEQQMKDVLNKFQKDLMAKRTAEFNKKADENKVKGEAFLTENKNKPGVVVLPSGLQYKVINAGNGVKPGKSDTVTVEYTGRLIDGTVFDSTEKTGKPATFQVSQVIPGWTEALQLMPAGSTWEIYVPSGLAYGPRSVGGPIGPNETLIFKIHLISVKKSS

Structure (SMILES) | IC50 [1] | IC50 [3] | IC50 [4] | IC50 [9] | other results
C[C@@H]1CC([C@H](O)CC2CC(=O)N(CC(=O)N(C)C(C)(C)C)C(=O)C2)C(=O)[C@@H](C)C1 (stereo partly specified) | 31700 nM |  |  |  | 
COc1cc(CCCOC(=O)C2CCCCN2S(=O)(=O)Cc2ccc([N+](=O)[O-])cc2)cc(OC)c1OC (stereo unspecified) |  | 95.6 nM | 64.6 nM |  | Activity [2]: 50%; Activity [5]: 50%; Activity [6]: 50%; Activity [7]: 50%
S=C(SC(=S)C1CCCCC1)C1CCCCC1 |  |  |  |  | EC50 [8]: 10000 nM
COc1cc(CCCOC(=O)C2CCCCN2S(=O)(=O)Cc2cccc([N+](=O)[O-])c2)cc(OC)c1OC (stereo unspecified) |  | 2790 nM | 241 nM |  | 
CCC12CC3CC(C1)C(NC(=O)CN1C(=O)CC(C[C@@H](O)C4C[C@@H](C)C[C@H](C)C4=O)CC1=O)C(C3)C2 (stereo partly specified) | 5600 nM |  |  | 190 nM | 
C[C@@H]1CC([C@H](O)CC2CC(=O)N(CC(=O)NC3C4CC5(C)CC3CC(C)(C4)C5)C(=O)C2)C(=O)[C@@H](C)C1 (stereo partly specified) | 1700 nM |  |  | 180 nM | 
C[C@@H]1CC([C@H](O)CC2CC(=O)N(CC(=O)NC3C4CC5(C)CC(O)(C4)CC3(C)C5)C(=O)C2)C(=O)[C@@H](C)C1 (stereo partly specified) | 4900 nM |  |  | 220 nM | 
C[C@@H]1CC([C@H](O)CC2CC(=O)N(CC(=O)NC3C4CC5CC3CC(O)(C5)C4)C(=O)C2)C(=O)[C@@H](C)C1 (stereo partly specified) | 21800 nM |  |  | 1200 nM | 
CO[C@H]1C[C@@H]2CC[C@@H](C)[C@@](O)(O2)C(=O)C(=O)N2CCCC[C@H]2C(=O)O[C@H]([C@H](C)C[C@@H]2CC[C@@H](O)[C@H](OC)C2)CC(=O)[C@H](C)/C=C(\C)[C@@H](O)[C@@H](OC)C(=O)[C@H](C)C[C@H](C)/C=C/C=C/C=C/1C [SIROLIMUS] |  | 15.8 nM | 7.9 nM |  | 
CC1=C(/C=C/C(C)=C/C=C/C(C)=C/C(=O)O)C(C)(C)CCC1 [TRETINOIN] |  |  |  |  | half-life at 672 h [10]: 45 min
